Results published in patent US8716326B2, “Isoindolinone derivatives, preparation method thereof and a pharmaceutical composition comprising same” (Korea Research Institute of Chemical Technology, priority 2009, dated 2014).

What was measured:
rats calvarias = test: Bone formation in rats calvarias loss site in vivo; conditions: 8 mm calvarias hole, vs control
Protocol: To investigate the effect of the amide compound according to the present invention on bone formation, bone formation ability of the said compound in the rats calvarias loss site was examined in vivo by using the compounds obtained in Example 8 and 27.
Specifically, the hole of the diameter of 8 mm was made in calavarias of rats by using trephine bur, and the collagen sponge prepared in Experimental Example 3 treated with 0.2 mg of the compound obtained in Example 8 in 15 μl of DMSO was placed at the site of loss. As a control group, the collagen sponge treated with only 100 μl of DMSO was treated at the site of loss. After 6 days from the suture of the calvarias scalp, the rats were sacrificed to obtain calvarias. Micro-computed tomography scan (SMX-90CT; Shimadzu, Japan) was performed and 3-dimensional image thereof was obtained.
Further, bone mineral content (BMC) of the test and control group was measured by using TRI 3D-BON (RATOC system Engineering Co., Tokyo, JP) based on the 3-dimensional image (see, Volume Graphics, VG studio Max 1.2.1). […]
Further, bone mineral content (BMC) of the test and control group was measured by using TRI 3D-BON (RATOC system Engineering Co., Tokyo, JP) based on the 3-dimensional image.

Runx2 = Runx2 activity, 6xOSE2-Luc luciferase reporter in transfected C2C12 cells; type: cell-based, Mouse; conditions: Mus musculus, 24 hrs, read-out: luciferase activity relative to control set as 1
How it was run: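 C2C12 mouse premyoblasts carrying the 6xOSE2-Luc reporter (six tandem Runx2-binding OSE2 sites in pGL3) switched to 5% FBS DMEM after 24 h and treated with compound at 2.5, 5.0, 10 or 20 μM. After 24 h, lysate luciferase measured by dual-luciferase assay, expressed relative to DMSO vehicle set as 1.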

mice calvarias = test: Mice calvarias loss inhibition, bone loss induced by interleukin-1 in vivo; conditions: IL-1 collagen sponge, 0.2 mg per mouse intraperitoneally, 7 days, vs vehicle
Protocol: Specifically, 5 to 7 ml of collagen (Cellmatrix type I-A; Wako co., Japan, Cat. No. 637-00653) was poured into petri dish (60×15 mm), and lyophlilized. The lyophlilized collagen sponge was made to the desired size which is appropriate to be implanted, and in order to induce local bone loss of mice, interleukin-1 (Peprotech; London, GB) was diluted with phosphate-buffered-saline solution to 2 μg per one mouse to be treated onto collagen sponge. The collagen sponge treated with interleukin-1 was contacted to the surface of mice carvarias through mice scalp incision, was implanted to 5 mice (5-week-male, ICR strain) in the test group and the control group, respectively, and was sutured. 7 days later, the mice were sacrificed to obtain calvarias. The test group was intraperitoneally injected with the dose of 0.2 mg of the compound obtained in Example 8 per one mouse from the next day of surgery to the day before the sacrifice. The control group was intraperitoneally injected with 100 μl of DMSO. After 7 days, the mice were sacrificed, and the extracted calvarias were washed 3-4 times with phosphate-buffered-saline solution and fixed in 4% paraformaldehyde for 24 hrs. Micro-computed tomography scan (SMX-90CT; Shimadzu, Japan) was performed for the fixed mice calvarias and 3-dimensional image thereof was obtained.
Further, bone mineral content (BMC) was measured by using TRI 3D-BON (RATOC system Engineering Co., Tokyo, Japan) based on the 3-dimensional image (see Volume Graphics, VG studio Max 1.2.1).
Histological studies were conducted in order to investigate the number of osteoclastic cells directly relating to bone loss. Specifically, the calvarias were decalcificated (solution was replaced every 2-3 days) with 12% EDTA (pH 7.2-7.4) for 14 days and embedded in paraffin. TRAP staining (Sigma-Aldrich) was performed on the embedded whole calvarias.
In addition, the whole area of osteoclast which is red-stained, that is, TRAP-positive was shown in graph by using image J program.
The procedure of the Experimental Example 3 was repeated except for using the compound obtained in Example 94 instead of the compound obtained in Example 8, to examine the effect on mice calvarias loss inhibition.
Histological studies were conducted in order to investigate the number of osteoclastic cells directly relating to bone loss. Specifically, the calvarias were decalcificated (solution was replaced every 2-3 days) with 12% EDTA (pH 7.2-7.4) for 14 days and embedded in paraffin.
H-E (Hematotoxin-eosin) and TRAP staining (Sigma-Aldrich) were performed on the embedded whole calvarias. The results are given in FIGS. 4b and 4c, respectively. In addition, the whole area of osteoclast of the test and control group was shown in graph by using image J program.

Row | SMILES | BMC (bone content) (rats calvarias; collagen sponge with 0.2 mg or 0.5 mg compound) | fold induction at 2.5 µM (Runx2) | fold induction at 5 µM (Runx2) | fold induction at 10 µM (Runx2) | fold induction at 20 µM (Runx2) | bone loss in calvarias (micro-computed tomography) (mice calvarias) | osteoclast (TRAP-positive area) (mice calvarias) | BMC (bone content) (rats calvarias; collagen sponge with 0.2 mg compound) | whole bone mineral content (BMC) (mice calvarias)
1 | Cc1cc(C(=O)NCCCCCC(=O)NO)ccc1-c1ccccc1 [Example 94, N-(5-(hydroxycarbamoyl)pentyl)-3-methyl-4-phenylbenzamide] | unexpectedly increased | 1.6 | 3.4 | 7.5 | 10.7 | suppressed | remarkably reduced | – | –
2 | COc1cc2c(c(-c3cncnc3)c1OC)CN(Cc1ccc(C(=O)Nc3ccccc3N)cc1)C2=O [Example 8, N-(2-aminophenyl)-4-((5,6-dimethoxy-1-oxo-4-(pyrimidin-5-yl)isoindolin-2-yl)methyl)benzamide] | – | 28.5 | 33.4 | 36 | 30.1 | suppressed | remarkably reduced | unexpectedly increased | increased
